Measurements from ChEMBL document CHEMBL1145707, “Methyl 4-hydroxy-3-(3'-methyl-2'-butenyl)benzoate, major insecticidal principle from Piper guanacastensis” (1997).
Values after ≈ are worked out from the molar mass of the structure shown.

Test system: Aedes atropalpus
Assay: Insecticidal activity against Aedes atropalpus second-instar larvae after 24 hrs
Type: functional

| SMILES | LC50 [µg/mL] |
| --- | --- |
| CCOC(=O)c1ccc(O)c(CC=C(C)C)c1 | 25.7 (≈ 110 µM) |
| COC(=O)c1ccc(O)c(CC=C(C)C)c1 | 20.5 (≈ 93.1 µM) |
